For orientation: Kd means the equilibrium constant for the complex coming apart. A higher Kd goes with lower affinity.

One data set has as its system ATP synthesis. The data set is described as follows: cellular ATP synthesis (FIG. 15). The class given is cell-based. The protocol: The following four compounds were exposed to cells, and ATP synthesis measured: […]
Data set [1] deals with ornithine decarboxylase (ODC). The data set is described as follows: ODC activity in treated cells (conversion of 3H-ornithine to putrescine). Conditions: cells treated for 4 h. The class given is cell-based, human. The method, then: In these experiments, the conversion of ornithine to putrescine was quantified using ^3H-ornithine. For comparisons, control cells were treated with vehicle control or difluoromethyl ornithine (DFMO), a potent inhibitor of ornithine decarboxylase (like Bz-423, DFMO is a potent anti-proliferative agent). […] The reduction in ODC activity was paralleled by a decrease in ODC protein levels measured under the same conditions.
As described above, Bz-423 induced apoptosis was signaled by an ROS response that arose from MRC complex III as a result of the state 3 to 4 transition. It was next sought to determine if the ROS response, critical for apoptosis, also mediated these effects on ODC. If the ROS was required for the decrease in ODC activity, it would likewise be implicated as potentially part of the anti-proliferative response to Bz-423. To test this, Ramos cells were treated with Bz-423, DFMO, or vehicle control for 4 h. In parallel, a second group of cells was pre-incubated with MnTBAP to limit the ROS and then cultured with Bz-423, DFMO, and vehicle control.

Data set [2] has as its system panel of cells in Table 7. The data set is described as follows: antiproliferation of Bz-Cl against the panel of cells, 3 d. Type of data set: cell-based. Conditions: after 3 d.
In a further data set the target is T1, human OSCP (Homo sapiens, UniProt P48047).
T1 construct: made in house; host or cells: E. coli
T1 sequence (P48047 24-213): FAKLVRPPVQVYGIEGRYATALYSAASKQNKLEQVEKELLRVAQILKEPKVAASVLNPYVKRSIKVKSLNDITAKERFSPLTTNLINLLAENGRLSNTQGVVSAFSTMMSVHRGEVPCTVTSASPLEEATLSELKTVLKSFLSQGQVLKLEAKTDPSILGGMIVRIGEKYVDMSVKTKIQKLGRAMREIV
In words: OSCP binding by quenching of intrinsic protein fluorescence. From the text: To determine if Bz-423 indeed binds to the OSCP and the affinity of the interaction, human OSCP was overexpressed in E. coli. […] Bz-423 is the only known inhibitor of the ATPase that functions through binding to the OSCP.

The next data set relates to Ramos cells. The data set is described as follows: cell culture cytotoxicity assays. Type of data set: cell-based, human. The protocol: Like most 1,4-benzodiazepines, Bz-423 binds strongly to bovine serum albumin (BSA), which reduces the effective concentration of drug free in solution. For example, in tissue culture media containing 10% (v/v) fetal bovine serum (FBS), ca. 99% of the drug is bound to BSA. Therefore, cell culture cytotoxicity assays are conducted in media with 2% FBS to reduce binding to BSA and increase the free [Bz-423]. Under these conditions, the dose response-curve is quite sharp such that there is a limited concentration range at which Bz-423 is only partly effective. Since some benzodiazepines are known to have anti-proliferative properties, the effect of Bz-423 at concentrations <ED50 were carefully analyzed and observed that in addition to inducing apoptosis, Bz-423 prevented cell growth after 3 d in culture. In these low serum conditions, the cytotoxic and anti-proliferative effects overlapped making it difficult to study each effect independently. […] While higher amounts of drug may also block proliferation, it caused apoptosis well before the effects on proliferation could be observed.
To confirm the decrease in cell number relative to control cells after 3 d of treatment is due to decreased proliferation and not cell death balanced by proliferation, in addition to cell counting, cell divisions were studied. PKH-67 is a fluorescent probe that binds irreversibly to cell membranes and upon cell division is partitioned equally between the daughter cells, making it possible to quantify cell division by flow cytometry. Ramos cells stained with PKH67 and treated with Bz-423 had fewer cell divisions at sub-cytotoxic concentrations which confirmed that the decrease in cell number was due to anti-proliferative affects and not cell death. To determine if Bz-423 induced anti-proliferation was specific to Ramos cells, cell counting and cell cycle experiments were done in other B cell lines and cell lines derived from solid tumors.

Data set [3] deals with isolated rat liver mitochondria. In words: ROS production in isolated mitochondria (DCF oxidation). Conditions: aerobic conditions supporting state 3 respiration, slope versus control. The method, then: Male Long Evans rats are starved overnight and sacrificed by decapitation. Liver samples are homogenized in ice cold buffer A (250 mM sucrose, 10 mM Tris, 0.1 mM EGTA, pH 7.4), and nuclei and cellular debris are pelleted (10 min, 830 g, 4° C.). Mitochondria are collected by centrifugation (10 min, 15,000 g, 4° C.), and the supernatant is collected as the S15 fraction. The mitochondrial pellet is washed three times with buffer B (250 mM sucrose, 10 mM Tris, pH 7.4), and re-suspended in buffer B at 20-30 mg/mL. Mitochondria are diluted (0.5 mg/mL) in buffer C (200 mM sucrose, 10 mM Tris, pH 7.4, 1 mM KH2PO4, 10 μM EGTA, 2.5 μM rotenone, 5 mM succinate) containing 2′,7′-dichlorodihydrofluorescin diacetate (DCFH-DA, 1 μM). For state 3 measurements, ADP (2 mM) is included in the buffer, and prior to the addition of Bz-423, mitochondria are allowed to charge for 2 min. To induce state 4, oligomycin (10 μM) is added to buffer C. […] To detect effects on O2^− and delta ψm, mitochondria are incubated for 15 min at 37° C. in buffer C with vehicle, Bz-423, or CCCP containing DHE (5 μM) or DIOC6(3) (20 nM), and aliquots are removed for analysis by fluorescence microscopy.
O2^− production by Bz-423 may result from binding to a protein within mitochondria or a target in another compartment that signals mitochondria to generate ROS. […]

On to `CN1C(=O)C(c2ccccc2)NC(c2ccc(O)cc2)c2cc(Cl)ccc21` (stereo not drawn), for which the “inhibition of cellular ATP synthesis” value in the data set with ATP synthesis was “did inhibit ATP synthesis”.
In the case of `CN1C(=O)C(Cc2ccc3ccccc3c2)N=C(c2ccc(Cl)cc2)c2cc(Cl)ccc21` (stereo not drawn) [Bz-Cl], the “effect on ODC activity” value in data set [1] is given as “inhibited ODC activity”. In addition, the “effect on proliferation compared with Bz-423” value in data set [2] was “reduced proliferation to a similar extent as Bz-423”. Moreover, the Kd on human OSCP was roughly 5 µM. Also, the “decrease of cytotoxic activity compared to Bz-423” value in the data set on Ramos cells is roughly 80%.
Regarding antimycin A, the “increase of the rate of ROS production” value in data set [3] was “nearly two-fold”.

Values taken from patent US20090275099A1 (priority 2004, published 2009).
